Data published in patent US12252481B2, “Anti-viral compounds” (Aligos Therapeutics, Inc., priority 2021, dated 2025).

Key:
[1] = tested on: SARS-CoV-2-GHB-03021/2020; assay type: cell-based; details: read-out: VeroE6 + CP (EC50)
SARS-Cov-2 3CLpro = target: T1, SARS-Cov-2 3CLpro (Severe acute respiratory syndrome coronavirus 2, UniProt P0DTD1); experiment: biochemical; details: 3CLpro, 30 mins preincubation, SAMDI-MS; read-out: SARS-Cov-2 IC50 (class)
T1 construct: 3CLpro and HRV3C was added using a Multidrop Combi

[2] = tested on: human beta-coronavirus OC43; experiment: OC43 coronavirus antiviral assay in HeLa cells (cytopathic effect, cell-titer-glo); assay type: cell-based; details: Betacoronavirus 1, OC43, HeLa, 144 h, 6 days at 33° C., read-out: EC50 (class)
HRV3C = target: T2, HRV3C (Human rhinovirus 14, UniProt P03303); experiment: biochemical; set-up: species or system HRV; details: HRV3C, 30 mins preincubation, SAMDI-MS; read-out: HRV IC50 (bound)
T2 construct: 3CLpro and HRV3C was added using a Multidrop Combi

human cathepsin L = target: T3, human cathepsin L (Homo sapiens, UniProt P07711); experiment: Cathepsin L assay (Z-FR-AMC fluorescence); assay type: biochemical; details: 10 pM human cathepsin L, 30 mins preincubation, Z-FR-AMC 2 μM
T3 construct: purchased R&D Systems
How it was run: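 Human cathepsin L (10 pM) was preincubated 30 min with compound, then reactions were started with Z-FR-AMC substrate (2 μM final). AMC fluorescence (355/460 nm) was read every 2 min over 30 min. IC50 came from a four-parameter curve fit.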

[3] = tested on: B.1.1.7 lineage SARS-CoV-2; experiment: microbe, parasite or virus in culture; assay type: cell-based; details: Severe acute respiratory syndrome coronavirus 2, 96 h; read-out: A549-dual_ACE2_TMPRSS2 (EC50)

T3 sequence (P07711 114-333): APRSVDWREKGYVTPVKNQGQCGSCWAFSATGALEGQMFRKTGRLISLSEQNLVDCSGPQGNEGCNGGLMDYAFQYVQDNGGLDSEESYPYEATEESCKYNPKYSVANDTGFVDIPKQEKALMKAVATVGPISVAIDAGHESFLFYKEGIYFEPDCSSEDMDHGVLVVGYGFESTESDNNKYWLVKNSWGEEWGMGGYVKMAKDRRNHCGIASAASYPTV
T2 sequence (P03303 1538-1719): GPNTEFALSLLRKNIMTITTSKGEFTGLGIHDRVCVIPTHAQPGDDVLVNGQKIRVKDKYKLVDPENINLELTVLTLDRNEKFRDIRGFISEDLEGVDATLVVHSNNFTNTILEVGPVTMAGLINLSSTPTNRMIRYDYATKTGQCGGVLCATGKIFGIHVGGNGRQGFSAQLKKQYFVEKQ

CC(C)(C)[C@H](NC(=O)C(F)(F)F)C(=O)N1C[C@H]2[C@@H]([C@H]1C(=O)N[C@H](C#N)C[C@@H]1CC3(CC3)NC1=O)[C@H]1C=C[C@@H]2C1 [Example 14, (1S,3aR,4S,7R,7aS)-N-((S)-1-cyano-2-((R)-5-oxo-4-azaspiro[2.4]heptan-6-yl)ethyl)-2-((S)-3,3-dimethyl-2-(2,2,2-trifluoroacetamido)butanoyl)-2,3,3a,4,7,7a-hexahydro-1H-4,7-methanoisoindole-1-carboxamide]
EC50 [1]: < 0.1 µM | IC50 (SARS-Cov-2 3CLpro): < 0.02 µM | EC50 [2]: < 0.1 µM | IC50 (HRV3C): > 10 µM | IC50 (human cathepsin L): ≥ 10 µM | EC50 [3]: < 0.1 µM

CC(C)(C)[C@H](NC(=O)C(F)(F)F)C(=O)N1C[C@H]2[C@@H]([C@H]1C(=O)N[C@H](C#N)C[C@@H]1CCCNC1=O)[C@H]1C=C[C@@H]2C1 [Example 16, (1S,3aR,4S,7R,7aS)-N-((S)-1-cyano-2-((S)-2-oxopiperidin-3-yl)ethyl)-2-((S)-3,3-dimethyl-2-(2,2,2-trifluoroacetamido)butanoyl)-2,3,3a,4,7,7a-hexahydro-1H-4,7-methanoisoindole-1-carboxamide]
EC50 [1]: < 0.1 µM | IC50 (SARS-Cov-2 3CLpro): < 0.02 µM | EC50 [2]: < 0.1 µM | IC50 (HRV3C): > 10 µM | IC50 (human cathepsin L): ≥ 10 µM | EC50 [3]: < 0.1 µM

CC(C)(C)[C@H](NC(=O)C(F)(F)F)C(=O)N1C[C@H]2[C@@H]([C@H]1C(=O)N[C@H](C#N)C[C@@H]1CCNC1=O)[C@H]1CC[C@@H]2C12CC2 [Example 18, (1′R,2′S,3′S,6′R,7′S)—N-[(1S)-1-cyano-2-[(3S)-2-oxopyrrolidin-3-yl]ethyl]-4′-[(2S)-3,3-dimethyl-2-(2,2,2-trifluoroacetamido)butanoyl]-4′-azaspiro[cyclopropane-1,10′-tricyclo[5.2.1.0^{2,6}]decane]-3′-carboxamide]
EC50 [1]: < 0.1 µM | IC50 (SARS-Cov-2 3CLpro): < 0.02 µM | EC50 [2]: < 0.1 µM | IC50 (HRV3C): > 10 µM | IC50 (human cathepsin L): ≥ 10 µM | EC50 [3]: 0.1 to 1 µM

CC(C)(C)[C@H](NC(=O)c1ccco1)C(=O)N1C[C@H]2[C@@H]([C@H]1C(=O)N[C@H](C#N)C[C@@H]1CCNC1=O)[C@H]1C=C[C@@H]2C1 [Example 19, (1S,3aR,4S,7R,7aS)-N-((S)-1-cyano-2-((S)-2-oxopyrrolidin-3-yl)ethyl)-2-((S)-2-(furan-2-carboxamido)-3,3-dimethylbutanoyl)-2,3,3a,4,7,7a-hexahydro-1H-4,7-methanoisoindole-1-carboxamide]
EC50 [1]: 0.1 to 1 µM | IC50 (SARS-Cov-2 3CLpro): 0.02 to 0.2 µM | EC50 [2]: < 0.1 µM | IC50 (HRV3C): > 10 µM | IC50 (human cathepsin L): ≥ 10 µM | EC50 [3]: 0.1 to 1 µM

CC(C)(C)[C@H](NC(=O)[C@H]1CCCO1)C(=O)N1C[C@H]2[C@@H]([C@H]1C(=O)N[C@H](C#N)C[C@@H]1CCNC1=O)[C@H]1C=C[C@@H]2C1 [Example 22, (1S,3aR,4S,7R,7aS)-N-((S)-1-cyano-2-((S)-2-oxopyrrolidin-3-yl)ethyl)-2-((S)-3,3-dimethyl-2-((R)-tetrahydrofuran-2-carboxamido)butanoyl)-2,3,3a,4,7,7a-hexahydro-1H-4,7-methanoisoindole-1-carboxamide]
EC50 [1]: 1 to 10 µM | IC50 (SARS-Cov-2 3CLpro): 0.2 to 2 µM | EC50 [2]: 1 to 10 µM | IC50 (HRV3C): > 10 µM | IC50 (human cathepsin L): ≥ 10 µM | EC50 [3]: 1 to 10 µM

CC(C)(C)[C@H](NC(=O)C(F)(F)F)C(=O)N1C[C@@H]2[C@H]3C[C@@H]([C@@H]2[C@H]1C(=O)N[C@H](C#N)C[C@@H]1CCNC1=O)[C@H]1[C@@H]3C1(F)F [Example 23, (1S,2S,3S,6R,7R,8R,10S)—N-[(1S)-1-cyano-2-[(3S)-2-oxopyrrolidin-3-yl]ethyl]-4-[(2S)-3,3-dimethyl-2-(2,2,2-trifluoroacetamido)butanoyl]-9,9-difluoro-4-azatetracyclo[5.3.1.0^{2,6}0.0^{8,10}]undecane-3-carboxamide]
EC50 [1]: 0.1 to 1 µM | IC50 (SARS-Cov-2 3CLpro): 0.02 to 0.2 µM | EC50 [2]: 1 to 10 µM | IC50 (HRV3C): > 10 µM | IC50 (human cathepsin L): ≥ 10 µM | EC50 [3]: 0.1 to 1 µM

CC1(C(NC(=O)C(F)(F)F)C(=O)N2C[C@H]3[C@@H]([C@H]2C(=O)N[C@H](C#N)C[C@@H]2CCNC2=O)[C@H]2C=C[C@@H]3C2)CC1 (stereo partly drawn) [Example 24, (1R,2S,3S,6R,7S)—N-[(1S)-1-cyano-2-[(3S)-2-oxopyrrolidin-3-yl]ethyl]-4-[2-(1-methylcyclopropyl)-2-(2,2,2-trifluoroacetamido)acetyl]-4-azatricyclo[5.2.1.0^{2,6}]dec-8-ene-3-carboxamide]
EC50 [1]: 0.1 to 1 µM | IC50 (SARS-Cov-2 3CLpro): < 0.02 µM | EC50 [2]: < 0.1 µM | IC50 (HRV3C): > 10 µM | IC50 (human cathepsin L): ≥ 10 µM | EC50 [3]: 0.1 to 1 µM

CC(C)(C)[C@H](NC(=O)C(F)(F)F)C(=O)N1C[C@H]2[C@@H]([C@H]1C(=O)NC(C#N)C[C@]13CC[C@H](C1)NC3=O)[C@H]1C=C[C@@H]2C1 (stereo partly drawn) [Example 26, (1S,3aR,4S,7R,7aS)—N-(1-cyano-2-((1R,4S)-3-oxo-2-azabicyclo[2.2.1]heptan-4-yl)ethyl)-2-((S)-3,3-dimethyl-2-(2,2,2-trifluoroacetamido)butanoyl)-2,3,3a,4,7,7a-hexahydro-1H-4,7-methanoisoindole-1-carboxamide]
EC50 [1]: 0.1 to 1 µM | IC50 (SARS-Cov-2 3CLpro): 0.02 to 0.2 µM | EC50 [2]: 0.1 to 1 µM | IC50 (HRV3C): > 10 µM | IC50 (human cathepsin L): ≥ 10 µM | EC50 [3]: 0.1 to 1 µM

N#C[C@H](C[C@@H]1CCNC1=O)NC(=O)[C@@H]1[C@@H]2[C@H](CN1C(=O)[C@@H](NC(=O)C(F)(F)F)C13CC(C1)C3)[C@@H]1C=C[C@H]2C1 [Example 27, (1R,2S,3S,6R,7S)-4-[(2S)-2-{bicyclo[1.1.1]pentan-1-yl}-2-(2,2,2-trifluoroacetamido)acetyl]-N-[(1S)-1-cyano-2-[(3S)-2-oxopyrrolidin-3-yl]ethyl]-4-azatricyclo[5.2.1.0^{2,6}]dec-8-ene-3-carboxamide]
EC50 [1]: < 0.1 µM | IC50 (SARS-Cov-2 3CLpro): < 0.02 µM | EC50 [2]: < 0.1 µM | IC50 (HRV3C): > 10 µM | IC50 (human cathepsin L): ≥ 10 µM | EC50 [3]: 0.1 to 1 µM

C=CC(C)(C)[C@H](NC(=O)C(F)(F)F)C(=O)N1C[C@H]2[C@@H]([C@H]1C(=O)N[C@H](C#N)C[C@@H]1CCNC1=O)[C@H]1C=C[C@@H]2C1 [Example 28, (1R,2S,3S,6R,7S)—N-[(1S)-1-cyano-2-[(3S)-2-oxopyrrolidin-3-yl]ethyl]-4-[(2S)-3,3-dimethyl-2-(2,2,2-trifluoroacetamido)pent-4-enoyl]-4-azatricyclo[5.2.1.0^{2,6}]dec-8-ene-3-carboxamide]
EC50 [1]: < 0.1 µM | IC50 (SARS-Cov-2 3CLpro): < 0.02 µM | EC50 [2]: < 0.1 µM | IC50 (HRV3C): > 10 µM | IC50 (human cathepsin L): ≥ 10 µM | EC50 [3]: < 0.1 µM

CC(C)(C)[C@H](NC(=O)C1(F)CC1)C(=O)N1C[C@H]2[C@@H]([C@H]1C(=O)N[C@H](C#N)C[C@@H]1CCNC1=O)[C@H]1C=C[C@@H]2C1 [Example 30, (1R,2S,3S,6R,7S)—N-[(1S)-1-cyano-2-[(3S)-2-oxopyrrolidin-3-yl]ethyl]-4-[(2S)-2-[(1-fluorocyclopropyl)formamido]-3,3-dimethylbutanoyl]-4-azatricyclo[5.2.1.0^{2,6}]dec-8-ene-3-carboxamide]
EC50 [1]: < 0.1 µM | IC50 (SARS-Cov-2 3CLpro): < 0.02 µM | EC50 [2]: < 0.1 µM | IC50 (HRV3C): > 10 µM | IC50 (human cathepsin L): ≥ 10 µM | EC50 [3]: < 0.1 µM

[2H][C@@H]1[C@H]([2H])[C@@H]2C[C@H]1[C@H]1[C@@H]2CN(C(=O)[C@@H](NC(=O)C(F)(F)F)C(C)(C)C)[C@@H]1C(=O)N[C@H](C#N)C[C@@H]1CCNC1=O [Example 32, (1S,3aR,4R,5S,6R,7S,7aS)-N-((S)-1-cyano-2-((S)-2-oxopyrrolidin-3-yl)ethyl)-2-((S)-3,3-dimethyl-2-(2,2,2-trifluoroacetamido)butanoyl)octahydro-1H-4,7-methanoisoindole-5,6-d^2-1-carboxamide]
EC50 [1]: < 0.1 µM | IC50 (SARS-Cov-2 3CLpro): < 0.02 µM | EC50 [2]: < 0.1 µM | IC50 (HRV3C): > 10 µM | IC50 (human cathepsin L): ≥ 10 µM | EC50 [3]: < 0.1 µM

CC(C)(C)[C@H](NC(=O)[C@H]1CC1(F)F)C(=O)N1C[C@H]2[C@@H]([C@H]1C(=O)N[C@H](C#N)C[C@@H]1CCNC1=O)[C@H]1C=C[C@@H]2C1 [Example 33, (1S,3aR,4S,7R,7aS)-N-((S)-1-cyano-2-((S)-2-oxopyrrolidin-3-yl)ethyl)-2-((S)-2-((R)-2,2-difluorocyclopropane-1-carboxamido)-3,3-dimethylbutanoyl)-2,3,3a,4,7,7a-hexahydro-1H-4,7-methanoisoindole-1-carboxamide]
EC50 [1]: < 0.1 µM | IC50 (SARS-Cov-2 3CLpro): < 0.02 µM | EC50 [2]: < 0.1 µM | IC50 (HRV3C): > 10 µM | IC50 (human cathepsin L): ≥ 10 µM | EC50 [3]: 0.1 to 1 µM

CC(C)(C)[C@H](NC(=O)C1CC12CC2)C(=O)N1C[C@H]2[C@@H]([C@H]1C(=O)N[C@H](C#N)C[C@@H]1CCNC1=O)[C@H]1C=C[C@@H]2C1 (stereo partly drawn) [Example 34, (1R,2S,3S,6R,7S)—N-[(1S)-1-cyano-2-[(3S)-2-oxopyrrolidin-3-yl]ethyl]-4-[(2S)-3,3-dimethyl-2-{spiro[2.2]pentan-1-ylformamido}butanoyl]-4-azatricyclo[5.2.1.0^{2,6}]dec-8-ene-3-carboxamide]
EC50 [1]: < 0.1 µM | IC50 (SARS-Cov-2 3CLpro): < 0.02 µM | EC50 [2]: < 0.1 µM | IC50 (HRV3C): > 10 µM | IC50 (human cathepsin L): ≥ 10 µM | EC50 [3]: 0.1 to 1 µM
